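Test compounds were applied to cells in 96-well plates for 48 hours at 5 doses. At the GI50, growth is halved. TGI marks complete inhibition of growth.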
Columns and labels:
Assay in all cases: NCI tumour cell line growth inhibition, 48 h
EKVX NSCLC = tested on: EKVX NSCLC
SF-268 CNS = tested on: SF-268 CNS
SK-MEL-28 melanoma = tested on: SK-MEL-28 melanoma
SK-OV-3 ovarian = tested on: SK-OV-3 ovarian
LOX IMVI melanoma = tested on: LOX IMVI melanoma
HOP-92 NSCLC = tested on: HOP-92 NSCLC
SNB-19 CNS = tested on: SNB-19 CNS
BT-549 breast = tested on: BT-549 breast
TK-10 renal = tested on: TK-10 renal
OVCAR-8 ovarian = tested on: OVCAR-8 ovarian
DU-145 prostate = tested on: DU-145 prostate
ACHN renal = tested on: ACHN renal
SK-MEL-5 melanoma = tested on: SK-MEL-5 melanoma
NCI-H226 lung = tested on: NCI-H226 lung
SF-295 CNS = tested on: SF-295 CNS
KM12 colon = tested on: KM12 colon
U251 CNS = tested on: U251 CNS
SNB-75 CNS = tested on: SNB-75 CNS
NCI/ADR-RES ovarian = tested on: NCI/ADR-RES ovarian
M14 melanoma = tested on: M14 melanoma
OVCAR-3 ovarian = tested on: OVCAR-3 ovarian
RPMI-8226 leukemia = tested on: RPMI-8226 leukemia
SN12C renal = tested on: SN12C renal
OVCAR-4 ovarian = tested on: OVCAR-4 ovarian
CAKI-1 renal = tested on: CAKI-1 renal
CCRF-CEM leukemia = tested on: CCRF-CEM leukemia
MOLT-4 leukemia = tested on: MOLT-4 leukemia
SR leukemia = tested on: SR leukemia
MCF7 breast = tested on: MCF7 breast
HCT-15 colon = tested on: HCT-15 colon
HCC-2998 colon = tested on: HCC-2998 colon
SF-539 CNS = tested on: SF-539 CNS
SW-620 colon = tested on: SW-620 colon
A549 NSCLC = tested on: A549 NSCLC
HCT-116 colon = tested on: HCT-116 colon
HS 578T breast = tested on: HS 578T breast
786-0 renal = tested on: 786-0 renal
NCI-H460 lung = tested on: NCI-H460 lung
HL-60(TB) leukemia = tested on: HL-60(TB) leukemia
HOP-62 NSCLC = tested on: HOP-62 NSCLC
OVCAR-5 ovarian = tested on: OVCAR-5 ovarian
K-562 leukemia = tested on: K-562 leukemia
SK-MEL-2 melanoma = tested on: SK-MEL-2 melanoma
UACC-62 melanoma = tested on: UACC-62 melanoma
T-47D breast = tested on: T-47D breast
NCI-H23 lung = tested on: NCI-H23 lung
RXF 393 renal = tested on: RXF 393 renal
MDA-MB-231 breast = tested on: MDA-MB-231 breast
UACC-257 melanoma = tested on: UACC-257 melanoma
UO-31 renal = tested on: UO-31 renal
PC-3 prostate = tested on: PC-3 prostate
HT29 colon = tested on: HT29 colon
IGROV1 ovarian = tested on: IGROV1 ovarian
NCI-H522 lung = tested on: NCI-H522 lung
A498 renal = tested on: A498 renal
MDA-MB-435 = tested on: MDA-MB-435
MALME-3M melanoma = tested on: MALME-3M melanoma
COLO 205 colon = tested on: COLO 205 colon

SMILES: COc1ccc2c(c1)cn1c3ccc(O)cc3nc(N)c21
- GI50 (EKVX NSCLC): 1510 nM
- TGI (EKVX NSCLC): 18500 nM
- GI50 (SF-268 CNS): 238 nM
- TGI (SF-268 CNS): 7240 nM
- GI50 (SK-MEL-28 melanoma): 126 nM
- TGI (SK-MEL-28 melanoma): 5310 nM
- GI50 (SK-OV-3 ovarian): 324 nM
- TGI (SK-OV-3 ovarian): 6480 nM
- GI50 (LOX IMVI melanoma): 71.2 nM
- TGI (LOX IMVI melanoma): 1940 nM
- GI50 (HOP-92 NSCLC): 1060 nM
- TGI (HOP-92 NSCLC): > 37000 nM
- GI50 (SNB-19 CNS): 357 nM
- TGI (SNB-19 CNS): 25000 nM
- GI50 (BT-549 breast): 4720 nM
- TGI (BT-549 breast): 22700 nM
- GI50 (TK-10 renal): 1130 nM
- TGI (TK-10 renal): 5600 nM
- GI50 (OVCAR-8 ovarian): 375 nM
- TGI (OVCAR-8 ovarian): 4920 nM
- GI50 (DU-145 prostate): 240 nM
- TGI (DU-145 prostate): 5430 nM
- GI50 (ACHN renal): 109 nM
- TGI (ACHN renal): 5180 nM
- GI50 (SK-MEL-5 melanoma): 76.2 nM
- TGI (SK-MEL-5 melanoma): 3950 nM
- GI50 (NCI-H226 lung): 597 nM
- TGI (NCI-H226 lung): 23200 nM
- GI50 (SF-295 CNS): 203 nM
- TGI (SF-295 CNS): 4000 nM
- GI50 (KM12 colon): 615 nM
- TGI (KM12 colon): 5700 nM
- GI50 (U251 CNS): 54.7 nM
- TGI (U251 CNS): 4110 nM
- GI50 (SNB-75 CNS): 112 nM
- TGI (SNB-75 CNS): 2810 nM
- GI50 (NCI/ADR-RES ovarian): 200 nM
- TGI (NCI/ADR-RES ovarian): 3330 nM
- GI50 (M14 melanoma): 79.8 nM
- TGI (M14 melanoma): 4980 nM
- GI50 (OVCAR-3 ovarian): 75.7 nM
- TGI (OVCAR-3 ovarian): 2390 nM
- GI50 (RPMI-8226 leukemia): 1750 nM
- TGI (RPMI-8226 leukemia): 12800 nM
- GI50 (SN12C renal): 342 nM
- TGI (SN12C renal): 19100 nM
- GI50 (OVCAR-4 ovarian): 1570 nM
- TGI (OVCAR-4 ovarian): 15700 nM
- GI50 (CAKI-1 renal): 246 nM
- TGI (CAKI-1 renal): 4390 nM
- GI50 (CCRF-CEM leukemia): 163 nM
- TGI (CCRF-CEM leukemia): > 50900 nM
- GI50 (MOLT-4 leukemia): 1180 nM
- TGI (MOLT-4 leukemia): 21700 nM
- GI50 (SR leukemia): 74.3 nM
- TGI (SR leukemia): 2760 nM
- GI50 (MCF7 breast): 615 nM
- TGI (MCF7 breast): 4990 nM
- GI50 (HCT-15 colon): 58.5 nM
- TGI (HCT-15 colon): 5990 nM
- GI50 (HCC-2998 colon): 626 nM
- TGI (HCC-2998 colon): 5240 nM
- GI50 (SF-539 CNS): 237 nM
- TGI (SF-539 CNS): 2720 nM
- GI50 (SW-620 colon): 38.8 nM
- TGI (SW-620 colon): 5820 nM
- GI50 (A549 NSCLC): 174 nM
- TGI (A549 NSCLC): 4220 nM
- GI50 (HCT-116 colon): 34.1 nM
- TGI (HCT-116 colon): 1860 nM
- GI50 (HS 578T breast): 1480 nM
- TGI (HS 578T breast): 33400 nM
- GI50 (786-0 renal): 947 nM
- TGI (786-0 renal): 6860 nM
- GI50 (NCI-H460 lung): 131 nM
- TGI (NCI-H460 lung): 14700 nM
- GI50 (HL-60(TB) leukemia): 765 nM
- TGI (HL-60(TB) leukemia): 31300 nM
- GI50 (HOP-62 NSCLC): 205 nM
- TGI (HOP-62 NSCLC): 8180 nM
- GI50 (OVCAR-5 ovarian): 1570 nM
- TGI (OVCAR-5 ovarian): 18300 nM
- GI50 (K-562 leukemia): 73.5 nM
- TGI (K-562 leukemia): 2460 nM
- GI50 (SK-MEL-2 melanoma): 270 nM
- TGI (SK-MEL-2 melanoma): 5140 nM
- GI50 (UACC-62 melanoma): 90 nM
- TGI (UACC-62 melanoma): 20000 nM
- GI50 (T-47D breast): 2340 nM
- TGI (T-47D breast): 10400 nM
- GI50 (NCI-H23 lung): 394 nM
- TGI (NCI-H23 lung): 17700 nM
- GI50 (RXF 393 renal): 85.2 nM
- TGI (RXF 393 renal): 2660 nM
- GI50 (MDA-MB-231 breast): 957 nM
- TGI (MDA-MB-231 breast): 5560 nM
- GI50 (UACC-257 melanoma): 79.3 nM
- TGI (UACC-257 melanoma): 1000 nM
- GI50 (UO-31 renal): 148 nM
- TGI (UO-31 renal): 10300 nM
- GI50 (PC-3 prostate): 761 nM
- TGI (PC-3 prostate): 13400 nM
- GI50 (HT29 colon): 1450 nM
- TGI (HT29 colon): 4310 nM
- GI50 (IGROV1 ovarian): 176 nM
- TGI (IGROV1 ovarian): 6590 nM
- GI50 (NCI-H522 lung): 111 nM
- TGI (NCI-H522 lung): 2220 nM
- GI50 (A498 renal): 498 nM
- TGI (A498 renal): 17400 nM
- GI50 (MDA-MB-435): 21.7 nM
- TGI (MDA-MB-435): 74.9 nM
- GI50 (MALME-3M melanoma): 71.4 nM
- TGI (MALME-3M melanoma): 23200 nM
- GI50 (COLO 205 colon): 885 nM
- TGI (COLO 205 colon): 4680 nM

Source: PubChem BioAssay (NCI)
